The assay addresses T1, T1R2/T1R3 taste receptor (Homo sapiens, UniProt Q7RTX0+Q8TE23).
T1 sequence (Q8TE23 20-839): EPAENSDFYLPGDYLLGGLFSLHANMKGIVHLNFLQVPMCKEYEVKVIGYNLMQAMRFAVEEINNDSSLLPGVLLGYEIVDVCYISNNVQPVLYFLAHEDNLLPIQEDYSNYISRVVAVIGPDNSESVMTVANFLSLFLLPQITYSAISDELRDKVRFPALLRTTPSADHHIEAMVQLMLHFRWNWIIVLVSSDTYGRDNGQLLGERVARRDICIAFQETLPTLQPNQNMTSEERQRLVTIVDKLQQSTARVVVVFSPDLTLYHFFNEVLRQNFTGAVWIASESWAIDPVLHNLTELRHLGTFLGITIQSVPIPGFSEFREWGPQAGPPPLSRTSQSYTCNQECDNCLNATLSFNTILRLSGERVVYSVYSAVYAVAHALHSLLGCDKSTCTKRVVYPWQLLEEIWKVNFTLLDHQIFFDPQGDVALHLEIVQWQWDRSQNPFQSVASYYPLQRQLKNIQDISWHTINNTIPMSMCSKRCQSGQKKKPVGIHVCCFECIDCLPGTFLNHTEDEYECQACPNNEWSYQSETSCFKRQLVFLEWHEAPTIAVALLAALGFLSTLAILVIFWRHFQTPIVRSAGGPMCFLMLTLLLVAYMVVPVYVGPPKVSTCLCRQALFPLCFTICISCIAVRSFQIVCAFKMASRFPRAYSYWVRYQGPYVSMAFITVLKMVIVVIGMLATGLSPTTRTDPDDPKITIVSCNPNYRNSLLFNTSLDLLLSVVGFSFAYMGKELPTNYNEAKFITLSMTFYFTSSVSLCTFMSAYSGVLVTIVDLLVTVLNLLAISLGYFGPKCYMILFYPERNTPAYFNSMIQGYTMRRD
T1 sequence (Q7RTX0 21-852): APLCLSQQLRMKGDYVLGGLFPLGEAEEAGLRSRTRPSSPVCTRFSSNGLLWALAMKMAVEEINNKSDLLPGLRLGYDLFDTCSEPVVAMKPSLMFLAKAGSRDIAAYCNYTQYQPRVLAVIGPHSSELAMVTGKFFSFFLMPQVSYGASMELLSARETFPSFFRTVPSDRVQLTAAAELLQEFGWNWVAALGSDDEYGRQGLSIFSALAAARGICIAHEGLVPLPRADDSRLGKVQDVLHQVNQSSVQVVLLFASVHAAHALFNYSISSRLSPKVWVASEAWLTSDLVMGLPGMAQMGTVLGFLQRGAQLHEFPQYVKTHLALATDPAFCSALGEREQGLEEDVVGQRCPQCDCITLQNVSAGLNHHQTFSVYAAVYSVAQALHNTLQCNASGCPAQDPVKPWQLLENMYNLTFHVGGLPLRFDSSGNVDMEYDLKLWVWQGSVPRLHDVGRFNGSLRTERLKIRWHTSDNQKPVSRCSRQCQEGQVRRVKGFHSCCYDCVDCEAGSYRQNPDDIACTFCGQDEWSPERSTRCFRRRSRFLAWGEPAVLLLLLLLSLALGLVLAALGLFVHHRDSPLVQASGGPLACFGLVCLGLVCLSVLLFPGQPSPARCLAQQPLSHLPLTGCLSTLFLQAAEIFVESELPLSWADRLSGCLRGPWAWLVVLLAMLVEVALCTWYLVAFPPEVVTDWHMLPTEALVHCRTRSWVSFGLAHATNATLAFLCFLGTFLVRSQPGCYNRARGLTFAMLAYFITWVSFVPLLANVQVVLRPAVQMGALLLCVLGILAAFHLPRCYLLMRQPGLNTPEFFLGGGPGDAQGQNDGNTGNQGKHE
As to the kind of experiment: Receptor-based assay: sweetener EC50 enhancement ratio with and without test compound. In kind it is cell-based. The following applies: for Sucrose Enhancement EC50 Ratio: sweetener sucrose; for Sucralose Enhancement EC50 Ratio: sweetener sucralose; for Fructose Enhancement EC50 Ratio: sweetener fructose. Put shortly:
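Sweetener (sucrose, sucralose, fructose) EC50 measured alone and with 1, 3, 10 or 50 μM test compound. Enhancement ratio = EC50 without/with compound; A = >1 to <10, B = 10–20, C = >20.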

In the case of `CCc1cnc(N[C@H]2CC[C@H](Oc3cccc4nc(C)c(C(=O)O)c(N)c34)CC2)nc1` [Compound 711], the “Sucrose Enhancement EC50 Ratio” value runs as follows: (1 μM test compound) “A (an enhancement ratio of greater than 1 and less than 10)”; (3 μM test compound) “A (an enhancement ratio of greater than 1 and less than 10)”; (10 μM test compound) “B (an enhancement ratio from 10 to 20)”. Besides, the “Sucralose Enhancement EC50 Ratio” value runs as follows: (3 μM test compound) “B (an enhancement ratio from 10 to 20)”; (10 μM test compound) “B (an enhancement ratio from 10 to 20)”. Moreover, the “Fructose Enhancement EC50 Ratio” value (10 μM test compound) was “A (an enhancement ratio of greater than 1 and less than 10)”; the “Fructose Enhancement EC50 Ratio” value (50 μM test compound) was “A (an enhancement ratio of greater than 1 and less than 10)”.

Turning to `Cc1cc(N[C@H]2CC[C@H](Oc3cccc4nc(C)c(C(=O)O)c(N)c34)CC2)nc(N)n1` [Compound 712], the “Sucrose Enhancement EC50 Ratio” value reads like this: (1 μM test compound) “A (an enhancement ratio of greater than 1 and less than 10)”; (3 μM test compound) “B (an enhancement ratio from 10 to 20)”; (10 μM test compound) “C (an enhancement ratio greater than 20)”. The “Sucralose Enhancement EC50 Ratio” value by setting is: (3 μM test compound) “B (an enhancement ratio from 10 to 20)”; (10 μM test compound) “C (an enhancement ratio greater than 20)”. In addition, the “Fructose Enhancement EC50 Ratio” value (10 μM test compound) is “A (an enhancement ratio of greater than 1 and less than 10)”; the “Fructose Enhancement EC50 Ratio” value (50 μM test compound) is “A (an enhancement ratio of greater than 1 and less than 10)”.

On to `Cc1nc2cccc(O[C@H]3CC[C@H](Nc4cnccn4)CC3)c2c(N)c1C(=O)O` [Compound 713], for which the “Sucrose Enhancement EC50 Ratio” value (1 μM test compound) is “A (an enhancement ratio of greater than 1 and less than 10)”; the “Sucrose Enhancement EC50 Ratio” value (3 μM test compound) is given as “B (an enhancement ratio from 10 to 20)”; the “Sucrose Enhancement EC50 Ratio” value (10 μM test compound) was “B (an enhancement ratio from 10 to 20)”. Also, the “Sucralose Enhancement EC50 Ratio” value (3 μM test compound) was “A (an enhancement ratio of greater than 1 and less than 10)”; the “Sucralose Enhancement EC50 Ratio” value (10 μM test compound) is given as “B (an enhancement ratio from 10 to 20)”. Also, the “Fructose Enhancement EC50 Ratio” value is, setting by setting: (10 μM test compound) “A (an enhancement ratio of greater than 1 and less than 10)”; (50 μM test compound) “A (an enhancement ratio of greater than 1 and less than 10)”.

Take `Cc1nccc(N[C@H]2CC[C@H](Oc3cccc4nc(C)c(C(=O)O)c(N)c34)CC2)n1` [Compound 714]: the “Sucrose Enhancement EC50 Ratio” value by setting is: (1 μM test compound) “A (an enhancement ratio of greater than 1 and less than 10)”; (3 μM test compound) “A (an enhancement ratio of greater than 1 and less than 10)”; (10 μM test compound) “A (an enhancement ratio of greater than 1 and less than 10)”. Moreover, the “Sucralose Enhancement EC50 Ratio” value by setting is: (3 μM test compound) “A (an enhancement ratio of greater than 1 and less than 10)”; (10 μM test compound) “A (an enhancement ratio of greater than 1 and less than 10)”. Further, the “Fructose Enhancement EC50 Ratio” value runs as follows: (10 μM test compound) “A (an enhancement ratio of greater than 1 and less than 10)”; (50 μM test compound) “A (an enhancement ratio of greater than 1 and less than 10)”.

The record behind these values is US11339128B2 (Firmenich Incorporated, priority 2014, dated 2022).
